Key:
[1] = molecular target: Glutamate NMDA receptor; assay: Binding affinity against N-methyl-D-aspartate glutamate receptor using [3H]25-6981 as radioligand.; type: protein-complex assay
[2] = The ionization constant for the compound was tested using a potentiometric method.; type: physicochemical
[3] = test system: Mus musculus; assay: In vivo effective dose required for 50% inhibition of sound induced seizures upon intraperitoneal dose, 30 min before testing in DBA/2 mice.; type: functional; settings: ip

| Structure (SMILES) | Ki [1] [µM] | pKa [2] | ED50 [3] [mg/kg] |
| --- | --- | --- | --- |
| CCCNc1cc(-c2ccccc2)nc2ccccc12 | 4.9 |  |  |
| OCC(O)CNc1cc(-c2ccccc2)nc2ccccc12 (stereo not given) | 0.26 | 8.4 |  |
| CC(C)Oc1ccc(-c2cc(NCC(O)CO)c3ccccc3n2)cc1 (stereo not given) | 0.5 |  |  |
| OCCNc1cc(-c2ccccc2)nc2ccccc12 | 0.11 |  |  |
| Cc1ccccc1-c1cc(NCC(O)CO)c2ccccc2n1 (stereo not given) | 3.7 |  |  |
| CC(O)CNc1cc(-c2ccccc2)nc2ccccc12 (stereo not given) | 0.26 |  |  |
| OCC(O)CNc1cc(-c2ccc(Cl)cc2)nc2ccccc12 (stereo not given) | 0.1 |  |  |
| c1ccc(-c2ccc3ccccc3n2)cc1 [2-PHENYLQUINOLINE] | > 35 | 5.2 |  |
| COCCNc1cc(-c2ccccc2)nc2ccccc12 | 7.5 |  |  |
| CC(=O)CNc1cc(-c2ccccc2)nc2ccccc12 | 7.9 |  |  |
| CCCCc1cc(NCC(O)CO)c2ccccc2n1 (stereo not given) | 33 |  |  |
| OCC(O)CNc1cc(C2CCc3ccccc3C2)nc2ccccc12 (stereo in doubt; 19) | 0.1 |  |  |
| OCC(O)CNc1ccnc2ccccc12 (stereo not given) | > 35 |  |  |
| Cc1cc(NCC(O)CO)c2ccccc2n1 (stereo not given) | > 40 |  |  |
| Nc1cc(-c2ccccc2)nc2ccccc12 | 0.413 | 8.5 |  |
| C[C@@H](O)CNc1cc(-c2ccccc2)nc2ccccc12 | 0.45 |  |  |
| OCC(O)CNc1cc(-c2ccc(O)cc2)nc2ccccc12 (stereo not given) | > 4 |  |  |

These reach a lower Ki [1]. Values come first.

| Ki [1] [µM] | pKa [2] | Structure (SMILES) | ED50 [3] [mg/kg] |
| --- | --- | --- | --- |
| 0.075 |  | C[C@H](O)CNc1cc(-c2ccccc2)nc2ccccc12 |  |
| 0.026 |  | COc1ccc(-c2cc(NCC(O)CO)c3ccccc3n2)cc1C (stereo not given) |  |
| 0.023 |  | Cc1ccc(-c2cc(NCC(O)CO)c3ccccc3n2)cc1 (stereo not given) |  |
| 0.022 |  | OCC(O)CNc1cc(-c2ccc3c(c2)CCCC3)nc2ccccc12 (stereo not given) |  |
| 0.019 |  | COc1ccc(-c2cc(NCC(O)CO)c3ccccc3n2)cc1 (stereo not given) |  |
| 0.017 |  | Cc1ccc(-c2cc(NCC(O)CO)c3ccccc3n2)cc1Cl (stereo not given) |  |
| 0.015 |  | COc1ccc(-c2cc(NCCO)c3ccccc3n2)cc1 | 25 |
| 0.011 |  | OCC(O)CNc1cc(C2CCc3ccccc3C2)nc2ccccc12 (stereo in doubt; 20) |  |
| 0.01 |  | Cc1ccc(-c2cc(NC[C@H](C)O)c3ccccc3n2)cc1Cl | 12 |
| 0.01 |  | COc1ccc(-c2cc(NC[C@H](C)O)c3ccccc3n2)cc1C | 17 |
| 0.0035 |  | OCCNc1cc(N2CCc3ccccc3C2)nc2ccccc12 | < 12 |

— ChEMBL document CHEMBL1135870, “4-Aminoquinolines as a novel class of NR1/2B subtype selective NMDA receptor antagonists” (Bioorg Med Chem Lett, 2002)
